Values quoted from earlier work, collected in article PMC13515262 (Molecules, 2026).

Biological target: T1, AChE (Electrophorus electricus, UniProt O42275)
T1 construct: The reaction was carried out using AChE serum obtained from the electric eel; from tissue; host or cells: 'serum' of the electric eel (so in the source)
Details: ref 39 (CAPE), 35 (Spiraeoside), 43 (olivetol), 36 (Vescalagin), 34 (Magnofluorine), 40 (taxifolin), 33 (coumestrol); read-out: Ki AChE (literature)

T1 sequence (O42275 24-633): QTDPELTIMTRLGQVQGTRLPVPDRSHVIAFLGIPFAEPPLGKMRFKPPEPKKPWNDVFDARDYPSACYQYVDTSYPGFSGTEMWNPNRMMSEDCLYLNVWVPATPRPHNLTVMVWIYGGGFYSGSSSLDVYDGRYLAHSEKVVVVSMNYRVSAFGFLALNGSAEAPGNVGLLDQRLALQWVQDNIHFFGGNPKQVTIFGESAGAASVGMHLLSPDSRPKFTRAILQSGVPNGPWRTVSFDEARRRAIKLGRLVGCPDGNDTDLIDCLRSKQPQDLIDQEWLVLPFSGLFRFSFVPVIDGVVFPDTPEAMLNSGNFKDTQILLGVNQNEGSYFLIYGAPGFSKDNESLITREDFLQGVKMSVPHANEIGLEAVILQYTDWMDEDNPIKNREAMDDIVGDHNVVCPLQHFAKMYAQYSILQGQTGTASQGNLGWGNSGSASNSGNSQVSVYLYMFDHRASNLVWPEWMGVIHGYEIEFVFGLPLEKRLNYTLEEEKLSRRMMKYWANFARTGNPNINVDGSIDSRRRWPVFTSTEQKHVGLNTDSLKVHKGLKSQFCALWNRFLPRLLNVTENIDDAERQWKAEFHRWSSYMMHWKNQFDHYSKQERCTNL

SMILES	Ki [nM]
O=C(/C=C/c1ccc(O)c(O)c1)OCCc1ccccc1 [CAPE, caffeic acid phenethyl ester]	0.518
O=c1c(O)c(-c2ccc(O[C@@H]3O[C@H](CO)[C@@H](O)[C@H](O)[C@H]3O)c(O)c2)oc2cc(O)cc(O)c12 [Spiraeoside]	3.4
